Experimental data as given in patent publication US12643858B2 (Inipharm, Inc., priority 2020, dated 2026).

molecular target: T1, HSD17B13 enzyme (Homo sapiens, UniProt Q7Z5P4); assay: NADH detection assay (fluorescence based LTB3 assay) for HSD17B13 activity; format: biochemical; settings: substrate 25 μM LTB3, 3 mM NAD+, 125 nM HSD17B13 enzyme, 1 hour at 26.5° C.
T1 construct: His; made in house; host or cells: E. coli
T1 sequence (Q7Z5P4 20-300): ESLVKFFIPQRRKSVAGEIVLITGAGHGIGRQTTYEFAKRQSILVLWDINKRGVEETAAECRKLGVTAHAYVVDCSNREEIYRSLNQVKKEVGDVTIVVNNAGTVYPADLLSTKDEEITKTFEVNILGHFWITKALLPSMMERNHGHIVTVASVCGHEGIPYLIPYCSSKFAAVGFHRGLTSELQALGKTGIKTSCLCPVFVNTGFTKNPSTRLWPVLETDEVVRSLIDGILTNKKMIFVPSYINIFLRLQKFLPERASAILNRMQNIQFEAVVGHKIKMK
Description: Example A: NADH Detection Assay for Evaluation of HSD17ß13 Activity and Identification of Inhibitors
The fluorescence based Leukotriene B3 (LTB3) assay monitors the fluorescence of NADH, which is generated from NAD+ during the dehydrogenation of the substrate LTB3. The reactions were performed in a 384-well plates (Greiner; #655076) in a 20 μl reaction volume containing the following reagents (final concentrations): 25 μM LTB3 (Cayman; #20109); 3 mM NAD+ (Sigma; #N0623); 125 nM HSD17B13 enzyme (in-house; E. coli expressed His-tagged, purified, soluble protein); […] potassium phosphate buffer, pH 7.4; and 1% DMSO. Reactions were initiated by co-addition of NAD+ and enzyme, and monitored for 1 hour at 26.5° C. Generation of NADH was measured as the fluorescence signal (Excitation at 340 nm and Emission at 445 nm) at 1 hour minus the baseline fluorescence at t=0. Fluorescence signals in the absence of LTB3 (negative control values), were subtracted from all values so that the results reflected substrate-dependent production of NADH. NADH standards were included to allow the conversion of relative fluorescence units into rates of enzyme activity. Enzyme activity in the presence of test compounds was expressed as a percentage of the uninhibited enzyme activity, and plotted versus inhibitor concentration. Non-linear regression was performed using a four-parameter logistic model and GraphPad Prism software (GraphPad Software, La Jolla, CA). Ten concentrations of inhibitor were tested (in the range of 30 μM-2.5 nM), and two independent assessments were performed at each concentration.

| IC50 [µM] | SMILES |
| --- | --- |
| ≤ 5 | Nc1nc2cc(-c3cccc(Oc4ccc(F)c(O)c4)n3)ccc2s1 [Example 47, 5-((6-(2-aminobenzo[d]thiazol-5-yl)pyridin-2-yl)oxy)-2-fluorophenol] |
| 5 to 10 | NS(=O)(=O)c1cccc(-c2cccc(Oc3ccc(F)c(O)c3)n2)c1 [Example 49, 3-[6-(4-fluoro-3-hydroxyphenoxy)pyridin-2-yl]benzene-1-sulfonamide] |
| ≤ 5 | Oc1cc(Oc2cccc(-c3ccc4scnc4c3)n2)ccc1F [Example 50, 5-{[6-(1,3-benzothiazol-5-yl)pyridin-2-yl]oxy}-2-fluorophenol] |
| > 30 | O=C1COc2cc(-c3cccc(Oc4ccc(F)c(O)c4)n3)ccc2N1 [Example 51, 7-(6-(4-fluoro-3-hydroxyphenoxy)pyridin-2-yl)-2H-benzo[b][1,4]oxazin-3(4H)-one] |
| ≤ 5 | CN1C(=O)COc2cc(-c3cccc(Oc4ccc(F)c(O)c4)n3)ccc21 [Example 53, 7-(6-(4-fluoro-3-hydroxyphenoxy)pyridin-2-yl)-4-methyl-2H-benzo[b][1,4]oxazin-3(4H)-one] |
| ≤ 5 | CNc1cccc(-c2cccc(Oc3ccc(F)c(O)c3)n2)c1 [Example 54, 2-fluoro-5-({6-[3-(methylamino)phenyl]pyridin-2-yl}oxy)phenol] |
| ≤ 5 | O=c1[nH]c2ccc(-c3cccc(Oc4ccc(F)c(O)c4)n3)cc2[nH]1 [Example 58, 5-(6-(4-fluoro-3-hydroxyphenoxy)pyridin-2-yl)-1,3-dihydro-2H-benzo[d]imidazol-2-one] |
| ≤ 5 | Oc1cc(Oc2cccc(-c3ccc4c(c3)NCCO4)n2)ccc1F [Example 59, 5-((6-(3,4-dihydro-2H-benzo[b][1,4]oxazin-6-yl)pyridin-2-yl)oxy)-2-fluorophenol] |
| > 30 | CC(=O)Nc1nc2cc(-c3cccc(Oc4ccc(F)c(O)c4)n3)ccc2s1 [Example 61, N-(5-(6-(4-fluoro-3-hydroxyphenoxy)pyridin-2-yl)benzo[d]thiazol-2-yl) acetamide] |
| ≤ 5 | Oc1cc(Oc2cccc(-c3ccc4c(c3)OCO4)n2)ccc1F [Example 67, 5-((6-(benzo[d][1,3]dioxol-5-yl)pyridin-2-yl)oxy)-2-fluorophenol] |
| > 30 | O=C(O)c1cccc(-c2cccc(Oc3ccc(F)c(O)c3)n2)c1 [Example 68, 3-(6-(4-fluoro-3-hydroxyphenoxy)pyridin-2-yl)benzoic acid] |
| > 30 | O=c1ccc(-c2cccc(Oc3ccc(F)c(O)c3)n2)cn1C(F)F [Example 73, 1′-(difluoromethyl)-6-(4-fluoro-3-hydroxyphenoxy)-[2,3′-bipyridin]-6′(1′H)-one] |
| > 30 | CS(=O)(=O)c1cccc(-c2cccc(Oc3ccc(F)c(O)c3)n2)c1 [Example 75, 2-fluoro-5-((6-(3-(methylsulfonyl)phenyl)pyridin-2-yl)oxy)phenol] |
| ≤ 5 | CC(=O)Nc1cccc(-c2cccc(Oc3ccc(F)c(O)c3)n2)c1 [Example 79, N-(3-(6-(4-fluoro-3-hydroxyphenoxy)pyridin-2-yl)phenyl)acetamide] |
| ≤ 5 | CNC(=O)c1cccc(-c2cccc(Oc3ccc(F)c(O)c3)n2)c1 [Example 81, 3-(6-(4-fluoro-3-hydroxyphenoxy)pyridin-2-yl)-N-methylbenzamide] |
| ≤ 5 | Oc1cc(Oc2cccc(-c3ccc(Cl)cc3)n2)ccc1F [Example 82, 5-{[6-(4-chlorophenyl)pyridin-2-yl]oxy}-2-fluorophenol] |
| 5 to 10 | Oc1cc(Oc2cccc(-c3ccc(F)c(Cl)c3)n2)ccc1F [Example 85, 5-{[6-(3-chloro-4-fluorophenyl)pyridin-2-yl]oxy}-2-fluorophenol] |

The remaining lines, values behind:

| SMILES | IC50 [µM] |
| --- | --- |
| O=S(=O)(Nc1ccccc1)c1cccc(-c2cccc(Oc3ccc(F)c(O)c3)n2)c1 [Example 45, 3-(6-(4-fluoro-3-hydroxyphenoxy)pyridin-2-yl)-N-phenylbenzene sulfonamide] | ≤ 5 |
| CC(=O)N1CCOc2cc(-c3cccc(Oc4ccc(F)c(O)c4)n3)ccc21 [Example 46, 1-{7-[6-(4-fluoro-3-hydroxyphenoxy)pyridin-2-yl]-3,4-dihydro-2H-1,4-benzoxazin-4-yl}ethan-1-one] | ≤ 5 |
| O=S(=O)(c1cccc(-c2cccc(Oc3ccc(F)c(O)c3)n2)c1)N1CCNCC1 [Example 48, 2-fluoro-5-((6-(3-(piperazin-1-ylsulfonyl)phenyl)pyridin-2-yl)oxy) phenol] | > 30 |
| COc1cccc(-c2cccc(Oc3ccc(F)c(C(F)F)c3)n2)c1F [Example 52, 2-[3-(difluoromethyl)-4-fluorophenoxy]-6-(2-fluoro-3-methoxyphenyl) pyridine] | > 30 |
| O=S(=O)(c1ccc(F)c(O)c1)c1cccc(-c2cccc(O)c2F)n1 [Example 55, 2-fluoro-3-[6-(4-fluoro-3-hydroxybenzenesulfonyl)pyridin-2-yl]phenol] | 5 to 10 |
| Oc1cccc(-c2cccc(Oc3ccc4c(c3)NCCO4)n2)c1F [Example 56, 3-[6-(3,4-dihydro-2H-1,4-benzoxazin-6-yloxy)pyridin-2-yl]-2-fluorophenol] | > 30 |
| CS(=O)(=O)Nc1cc(Oc2cccc(-c3cccc(O)c3F)n2)ccc1F [Example 57, N-(2-fluoro-5-{[6-(2-fluoro-3-hydroxyphenyl)pyridin-2-yl]oxy}phenyl)methane-sulfonamide] | > 30 |
| COc1cc(Oc2cccc(-c3ccc4c(c3)NS(=O)(=O)C4)n2)ccc1F [Example 60, 6-(6-(4-fluoro-3-methoxyphenoxy)pyridin-2-yl)-1,3-dihydrobenzo[c]isothiazole 2,2-dioxide] | > 30 |
| N#Cc1ccc(Oc2ccc(F)c(O)c2)nc1N1CCOCC1 [Example 62, 6-(4-fluoro-3-hydroxyphenoxy)-2-(morpholin-4-yl)pyridine-3-carbonitrile] | > 30 |
| O=C(NC1CC1)c1cccc(-c2cccc(Oc3ccc(F)c(O)c3)n2)c1 [Example 63, N-cyclopropyl-3-(6-(4-fluoro-3-hydroxyphenoxy)pyridin-2-yl)benzamide] | 10 to 30 |
| Oc1cc(Oc2cccc(-c3ccc(OC(F)(F)F)c(Cl)c3)n2)ccc1F [Example 66, 5-((6-(3-chloro-4-(trifluoromethoxy)phenyl)pyridin-2-yl)oxy)-2-fluorophenol] | ≤ 5 |
| CNC(=O)c1cc(Oc2ccc(F)c(O)c2)nc(-c2cccc(O)c2F)c1 [Example 69, 2-(4-fluoro-3-hydroxyphenoxy)-6-(2-fluoro-3-hydroxyphenyl)-N-methylpyridine-4-carboxamide] | 10 to 30 |
| CNC(=O)c1cc(Oc2ccc(F)c(OC)c2)nc(-c2cccc(O)c2F)c1 [Example 70, 2-(2-fluoro-3-hydroxyphenyl)-6-(4-fluoro-3-methoxyphenoxy)-N-methylpyridine-4-carboxamide] | > 30 |
| Oc1cc(Oc2cccc(N3CCOCC3)n2)ccc1F [Example 72, 2-fluoro-5-{[6-(morpholin-4-yl)pyridin-2-yl]oxy}phenol] | > 30 |
| COc1cccc(F)c1-c1cccc(Oc2ccc(F)c(O)c2)n1 [Example 74, 2-fluoro-5-((6-(2-fluoro-6-methoxyphenyl)pyridin-2-yl)oxy)phenol] | > 30 |
| NS(=O)(=O)c1ccc(-c2cccc(Oc3ccc(F)c(O)c3)n2)cc1 [Example 76, 4-(6-(4-fluoro-3-hydroxyphenoxy)pyridin-2-yl)benzene sulfonamide] | 10 to 30 |
| CS(=O)(=O)c1ccc(-c2cccc(Oc3ccc(F)c(O)c3)n2)cc1 [Example 77, 2-fluoro-5-((6-(4-(methylsulfonyl)phenyl)pyridin-2-yl)oxy)phenol] | 10 to 30 |
| Oc1cc(Oc2cccc(-c3c(F)cccc3F)n2)ccc1F [Example 78, 5-((6-(2,6-difluorophenyl)pyridin-2-yl)oxy)-2-fluorophenol] | 5 to 10 |
| CNC(=O)c1ccc(-c2cccc(Oc3ccc(F)c(O)c3)n2)cc1 [Example 80, 4-(6-(4-fluoro-3-hydroxyphenoxy)pyridin-2-yl)-N-methylbenzamide] | ≤ 5 |
| Oc1cc(Oc2cccc(-c3ccccc3Cl)n2)ccc1F [Example 83, 5-{[6-(2-chlorophenyl)pyridin-2-yl]oxy}-2-fluorophenol] | ≤ 5 |
| Oc1cc(Oc2cccc(-c3ccc(F)cc3F)n2)ccc1F [Example 84, 5-{[6-(2,4-difluorophenyl)pyridin-2-yl]oxy}-2-fluorophenol] | 5 to 10 |
| Oc1cc(Oc2cccc(-c3cccc(Cl)c3F)n2)ccc1F [Example 86, 5-{[6-(3-chloro-2-fluorophenyl)pyridin-2-yl]oxy}-2-fluorophenol] | ≤ 5 |
| COc1ccc(-c2cccc(Oc3ccc(F)c(O)c3)n2)c(F)c1 [Example 87, 2-fluoro-5-{[6-(2-fluoro-4-methoxyphenyl)pyridin-2-yl]oxy}phenol] | ≤ 5 |
